Measurements reported in patent publication US20260139017A1, “COMPOSITIONS AND METHODS USING REELIN IN ALZHEIMER'S DISEASE” (The General Hospital Corporation, priority 2022, published 2026).

Key:
[1] = tested on: pDAB1 (Tyr232); assay: HRECs treated 5 minutes with recombinant mini-RELN, pDAB1 western blot; format: cell-based, human; details: 5 minutes, 4 ug/mL recombinant protein
Description: For in vitro screening of constructs using recombinant mini-RELN on HRECs, the cells were cultured in EBM-2 media enriched with EGM-2 Single Quots (Lonza) at 37° C. and 5% CO2 and experimentally tested at passage 7. 24 h prior experiment, cells were plated on a 6-well plate at 500,000 cells/mL. Two hours before the experiment, the cells were washed with PBS to remove residual growth media and then incubated with a starving media including EBM-2, 1% GlutaMax+0.2% Normicin. Treatments was conducted using recombinant mini RELN constructs obtained from Innovagen and Recombinant Mouse Reelin Protein from R&D systems (3820-MR-025/CF). Each treatment was incubated for 5 minutes at 4 ug/mL concentration and cells were subsequently harvested in lysis buffer was applied constituted of RIPA (Cell signaling), proteases inhibitors (cOmplete™, Mini, EDTA-free Protease Inhibitor Cocktail, Roche), phosphatases inhibitors (PhosSTOP, Roche), 1 μL of proteasome inhibitor MG-132 10 mM, 1% Triton X 100. The lysates were scraped and centrifugated at 15000 rpm for 10 minutes at 4° C. Total protein levels were quantified via BCA assay. […] We detected pDAB1 (Tyr232; 1:1000, rabbit, #3325 Cell signaling), and total protein staining (Licor). […] To quantify the results, each band was quantified using ImageJ and data expressed as pDABL:total protein ratio normalized to the control.

[2] = tested on: pDAB1 (Tyr232); assay: HRECs treated 5 minutes with HEK 293T-derived mini-RELN media, pDAB1 western blot; format: cell-based, human; details: HEK 293T-derived media 1:1, 1:4, 1:14, 5 minutes
Description: The effect of in vitro treatment with RELN or miniRELN protein was also evaluated. HRECs were cultured in EBM-2 media enriched with EGM-2 Single Quots (Lonza) at 37° C. and 5% CO2 and experimentally tested at passage 7. 24 h prior experiment, cells were plated on a 6-well plate at 500,000 cells/mL. Two hours before the experiment, the cells were washed with PBS to remove residual growth media and then incubated with a starving media including EBM-2, 1% GlutaMax+0,2% Normicin. Treatments was conducted using media derived from HEK 293T cells transiently transfected for 24 h with different mini-RELN constructs in the presence of Lipofectamine 2000. […] Total protein levels were quantified via BCA assay. […] We detected pDAB1 (Tyr232; 1:1000, rabbit, #3325 Cell signaling), and Beta actin (1:5000, mouse, #66009-1-Ig, Proteintech. Antibodies were diluted using Intercept® (TBS) Blocking Buffer and incubated overnight at 4C under gentle shaking. Prior secondary antibody incubation, membranes were washes 2 times using TBS-T for 10 minutes. As secondary antibodies we used IR Dye 800n CW Goat-anti-Rabbit (925-32211, Licor) and IR Dye 680 CW Goat-anti-Mouse (925-68070, Licor) both diluted 1:10000 in blocking buffer for 1 h at room temperature under gentle shaking. Membranes were washed three times with TBS-T prior IR detection using Odyssey imager. […]

Question: How did the pDAB1 levels [1] turn out when “IL2signalpeptide-6XHistag(SEQ ID NO: 62)-hReelin(AALeu1220-Ile2660) Cterm-REELINWT [225SV]” was run?
Answer: increased pDAB1 levels

Question: What about the “pDAB1 / Dab1 signaling activation” value [2] of the same substance?
Answer: efficacy
